Assays:
Type in all cases: in vivo
[1] = tested on: barnyardgrass (Echinochloa crus-galli); experiment: Test A preemergence, barnyardgrass; conditions: 0 to 100 scale (0 no effect, 100 complete control)
Excerpt: (§1) Seeds of barnyardgrass (Echinochloa crus-galli), large crabgrass (Digitaria sanguinalis), giant foxtail (Setaria faberi), morningglory (Ipomoea spp.), pigweed (Amaranthus retroflexus), velvetleaf (Abutilon theophrasti), wheat (Triticum aestivum), and corn (Zea mays) were planted into a blend of loam soil and sand and treated preemergence with a directed soil spray using test chemicals formulated in a non-phytotoxic solvent mixture which included a surfactant. At the same time these species were also treated with postemergence applications of test compounds formulated in the same manner. Plants ranged in height from two to ten cm and were in the one- to two-leaf stage for the postemergence treatment. Treated plants and untreated controls were maintained in a greenhouse for approximately ten days, after which time all treated plants were compared to untreated controls and visually evaluated for injury. Plant response ratings, summarized in Table A, are based on a 0 to 100 scale where 0 is no effect and 100 is complete control. A dash (-) response means no test result.

[2] = tested on: large crabgrass (Digitaria sanguinalis); experiment: Test A preemergence, large crabgrass; conditions: 0 to 100 scale (0 no effect, 100 complete control)
Excerpt: as §1

[3] = tested on: giant foxtail (Setaria faberi); experiment: Test A preemergence, giant foxtail; conditions: 0 to 100 scale (0 no effect, 100 complete control)
Excerpt: as §1

[4] = tested on: morningglory (Ipomoea spp.); experiment: Test A preemergence, morningglory; conditions: 0 to 100 scale (0 no effect, 100 complete control)
Excerpt: as §1

[5] = tested on: pigweed (Amaranthus retroflexus); experiment: Test A preemergence, pigweed; conditions: 0 to 100 scale (0 no effect, 100 complete control)
Excerpt: as §1

[6] = tested on: velvetleaf (Abutilon theophrasti); experiment: Test A preemergence, velvetleaf; conditions: 0 to 100 scale (0 no effect, 100 complete control)
Excerpt: as §1

[7] = tested on: wheat (Triticum aestivum); experiment: Test A preemergence, wheat; conditions: 0 to 100 scale (0 no effect, 100 complete control)
Excerpt: as §1

[8] = tested on: corn (Zea mays); experiment: Test A preemergence, corn; conditions: 0 to 100 scale (0 no effect, 100 complete control)
Excerpt: as §1

[9] = tested on: barnyardgrass (Echinochloa crus-galli); experiment: Test A postemergence, barnyardgrass; conditions: 0 to 100 scale (0 no effect, 100 complete control)
Excerpt: as §1

[10] = tested on: large crabgrass (Digitaria sanguinalis); experiment: Test A postemergence, large crabgrass; conditions: 0 to 100 scale (0 no effect, 100 complete control)
Excerpt: as §1

[11] = tested on: giant foxtail (Setaria faberi); experiment: Test A postemergence, giant foxtail; conditions: 0 to 100 scale (0 no effect, 100 complete control)
Excerpt: as §1

[12] = tested on: morningglory (Ipomoea spp.); experiment: Test A postemergence, morningglory; conditions: 0 to 100 scale (0 no effect, 100 complete control)
Excerpt: as §1

[13] = tested on: pigweed (Amaranthus retroflexus); experiment: Test A postemergence, pigweed; conditions: 0 to 100 scale (0 no effect, 100 complete control)
Excerpt: as §1

[14] = tested on: velvetleaf (Abutilon theophrasti); experiment: Test A postemergence, velvetleaf; conditions: 0 to 100 scale (0 no effect, 100 complete control)
Excerpt: as §1

[15] = tested on: wheat (Triticum aestivum); experiment: Test A postemergence, wheat; conditions: 0 to 100 scale (0 no effect, 100 complete control)
Excerpt: as §1

[16] = tested on: corn (Zea mays); experiment: Test A postemergence, corn; conditions: 0 to 100 scale (0 no effect, 100 complete control)
Excerpt: as §1

[17] = tested on: rice (Oryza sativa); experiment: Test B flooded paddy test, rice; conditions: Flood, scale 0 to 100
Excerpt: (§2) Plant species in the flooded paddy test consisted of rice (Oryza sativa), umbrella sedge (Cyperus difformis), ducksalad (Heteranthera limosa) and barnyardgrass (Echinochloa crus-galli) grown to the 2-leaf stage for testing. At time of treatment, test pots were flooded to 3 cm above the soil surface, treated by application of test compounds directly to the paddy water, and then maintained at that water depth for the duration of the test. Treated plants and controls were maintained in a greenhouse for 13 to 15 days, after which time all species were compared to controls and visually evaluated. Plant response ratings, summarized in Table B, are based on a scale of 0 to 100 where 0 is no effect and 100 is complete control. A dash (-) response means no test result.

[18] = tested on: umbrella sedge (Cyperus difformis); experiment: Test B flooded paddy test, umbrella sedge; conditions: Flood, scale 0 to 100
Excerpt: as §2

[19] = tested on: ducksalad (Heteranthera limosa); experiment: Test B flooded paddy test, ducksalad; conditions: Flood, scale 0 to 100
Excerpt: as §2

[20] = tested on: barnyardgrass (Echinochloa crus-galli); experiment: Test B flooded paddy test, barnyardgrass; conditions: Flood
Excerpt: as §2

[21] = 250 g ai/ha, scale 0 to 100 (0 no effect, 100 complete control)

SMILES: Cn1c(=O)c(CS(=O)(=O)C2=NOC(C)(C)C2)nc2ccccc21 [Compound 23]
- Plant response rating, Barnyardgrass ([1]; 125 g ai/ha): 20
- Plant response rating, Barnyardgrass ([1]; 500 g ai/ha): 40
- Plant response rating, Crabgrass, Large ([2]; 125 g ai/ha): 10
- Plant response rating, Crabgrass, Large ([2]; 500 g ai/ha): 70
- Plant response rating, Foxtail, Giant ([3]; 125 g ai/ha): 30
- Plant response rating, Foxtail, Giant ([3]; 500 g ai/ha): 80
- Plant response rating, Morningglory ([4]; 125 g ai/ha): 0
- Plant response rating, Pigweed ([5]; 125 g ai/ha): 0
- Plant response rating, Pigweed ([5]; 500 g ai/ha): 10
- Plant response rating, Velvetleaf ([6]; 125 g ai/ha): 0
- Plant response rating, Velvetleaf ([6]; 500 g ai/ha): 0
- Plant response rating, Wheat ([7]; 125 g ai/ha): 0
- Plant response rating, Wheat ([7]; 500 g ai/ha): 0
- Plant response rating, Corn ([8]; 125 g ai/ha): 0
- Plant response rating, Corn ([8]; 500 g ai/ha): 0
- Plant response rating, Barnyardgrass ([9]; 125 g ai/ha): 40
- Plant response rating, Barnyardgrass ([9]; 500 g ai/ha): 60
- Plant response rating, Crabgrass, Large ([10]; 125 g ai/ha): 30
- Plant response rating, Crabgrass, Large ([10]; 500 g ai/ha): 60
- Plant response rating, Foxtail, Giant ([11]; 125 g ai/ha): 10
- Plant response rating, Foxtail, Giant ([11]; 500 g ai/ha): 60
- Plant response rating, Morningglory ([12]; 125 g ai/ha): 0
- Plant response rating, Morningglory ([12]; 500 g ai/ha): 0
- Plant response rating, Pigweed ([13]; 125 g ai/ha): 0
- Plant response rating, Pigweed ([13]; 500 g ai/ha): 0
- Plant response rating, Velvetleaf ([14]; 125 g ai/ha): 0
- Plant response rating, Velvetleaf ([14]; 500 g ai/ha): 0
- Plant response rating, Wheat ([15]; 125 g ai/ha): 0
- Plant response rating, Wheat ([15]; 500 g ai/ha): 0
- Plant response rating, Corn ([16]; 125 g ai/ha): 0
- Plant response rating, Corn ([16]; 500 g ai/ha): 0
- Plant response rating, Rice ([17]; 62 g ai/ha): 0
- Plant response rating, Rice ([17]; 250 g ai/ha): 0
- Plant response rating, Sedge, Umbrella ([18]; 62 g ai/ha): 0
- Plant response rating, Sedge, Umbrella ([18]; 250 g ai/ha): 0
- Plant response rating, Ducksalad ([19]; 62 g ai/ha): 0
- Plant response rating, Ducksalad ([19]; 250 g ai/ha): 0
- Plant response rating, Barnyardgrass ([20]; 62 g ai/ha, scale 0 to 100): 0
- Plant response rating, Barnyardgrass [20, 21]: 0

SMILES: CC1(C)CC([S+]([O-])Cc2c(C(F)(F)C(F)(F)F)nc3n(c2=O)CCC3)=NO1 (stereo not shown) [Compound 27]
- Plant response rating, Barnyardgrass ([1]; 125 g ai/ha): 50
- Plant response rating, Barnyardgrass ([1]; 500 g ai/ha): 90
- Plant response rating, Crabgrass, Large ([2]; 125 g ai/ha): 70
- Plant response rating, Crabgrass, Large ([2]; 500 g ai/ha): 90
- Plant response rating, Foxtail, Giant ([3]; 125 g ai/ha): 60
- Plant response rating, Foxtail, Giant ([3]; 500 g ai/ha): 90
- Plant response rating, Morningglory ([4]; 125 g ai/ha): 0
- Plant response rating, Morningglory ([4]; 500 g ai/ha): 0
- Plant response rating, Pigweed ([5]; 125 g ai/ha): 0
- Plant response rating, Pigweed ([5]; 500 g ai/ha): 0
- Plant response rating, Velvetleaf ([6]; 125 g ai/ha): 0
- Plant response rating, Velvetleaf ([6]; 500 g ai/ha): 60
- Plant response rating, Wheat ([7]; 125 g ai/ha): 0
- Plant response rating, Wheat ([7]; 500 g ai/ha): 50
- Plant response rating, Corn ([8]; 125 g ai/ha): 0
- Plant response rating, Corn ([8]; 500 g ai/ha): 0
- Plant response rating, Barnyardgrass ([9]; 125 g ai/ha): 40
- Plant response rating, Barnyardgrass ([9]; 500 g ai/ha): 70
- Plant response rating, Crabgrass, Large ([10]; 125 g ai/ha): 40
- Plant response rating, Crabgrass, Large ([10]; 500 g ai/ha): 80
- Plant response rating, Foxtail, Giant ([11]; 125 g ai/ha): 40
- Plant response rating, Foxtail, Giant ([11]; 500 g ai/ha): 70
- Plant response rating, Morningglory ([12]; 125 g ai/ha): 0
- Plant response rating, Morningglory ([12]; 500 g ai/ha): 40
- Plant response rating, Pigweed ([13]; 125 g ai/ha): 0
- Plant response rating, Pigweed ([13]; 500 g ai/ha): 30
- Plant response rating, Velvetleaf ([14]; 125 g ai/ha): 0
- Plant response rating, Velvetleaf ([14]; 500 g ai/ha): 40
- Plant response rating, Wheat ([15]; 125 g ai/ha): 0
- Plant response rating, Wheat ([15]; 500 g ai/ha): 50
- Plant response rating, Corn ([16]; 125 g ai/ha): 0
- Plant response rating, Corn ([16]; 500 g ai/ha): 0
- Plant response rating, Rice ([17]; 31 g ai/ha): 0
- Plant response rating, Rice ([17]; 62 g ai/ha): 0
- Plant response rating, Rice ([17]; 125 g ai/ha): 0
- Plant response rating, Rice ([17]; 250 g ai/ha): 0
- Plant response rating, Sedge, Umbrella ([18]; 31 g ai/ha): 0
- Plant response rating, Sedge, Umbrella ([18]; 62 g ai/ha): 0
- Plant response rating, Sedge, Umbrella ([18]; 125 g ai/ha): 0
- Plant response rating, Sedge, Umbrella ([18]; 250 g ai/ha): 0
- Plant response rating, Ducksalad ([19]; 31 g ai/ha): 0
- Plant response rating, Ducksalad ([19]; 62 g ai/ha): 0
- Plant response rating, Ducksalad ([19]; 125 g ai/ha): 0
- Plant response rating, Ducksalad ([19]; 250 g ai/ha): 0
- Plant response rating, Barnyardgrass ([20]; 31 g ai/ha, scale 0 to 100): 0
- Plant response rating, Barnyardgrass ([20]; 62 g ai/ha, scale 0 to 100): 0
- Plant response rating, Barnyardgrass ([20]; 125 g ai/ha, scale 0 to 100): 0
- Plant response rating, Barnyardgrass [20, 21]: 0

SMILES: CC1(C)CC(SCc2c(C(F)(F)F)nc3n(c2=O)CCC3)=NO1 [Compound 9, 3-[[(4,5-dihydro-5,5-dimethyl-3-isoxazolyl)thio]methyl]-7,8-dihydro-2-(trifluoromethyl)pyrrolo[1,2-α]pyrimidin-4(6H)-one]
- Plant response rating, Barnyardgrass ([1]; 1000 g ai/ha): 0
- Plant response rating, Crabgrass, Large ([2]; 1000 g ai/ha): 0
- Plant response rating, Foxtail, Giant ([3]; 1000 g ai/ha): 0
- Plant response rating, Morningglory ([4]; 1000 g ai/ha): 0
- Plant response rating, Pigweed ([5]; 1000 g ai/ha): 0
- Plant response rating, Velvetleaf ([6]; 1000 g ai/ha): 0
- Plant response rating, Wheat ([7]; 1000 g ai/ha): 0
- Plant response rating, Corn ([8]; 1000 g ai/ha): 0
- Plant response rating, Barnyardgrass ([9]; 1000 g ai/ha): 0
- Plant response rating, Crabgrass, Large ([10]; 1000 g ai/ha): 0
- Plant response rating, Foxtail, Giant ([11]; 1000 g ai/ha): 0
- Plant response rating, Morningglory ([12]; 1000 g ai/ha): 30
- Plant response rating, Pigweed ([13]; 1000 g ai/ha): 10
- Plant response rating, Velvetleaf ([14]; 1000 g ai/ha): 10
- Plant response rating, Wheat ([15]; 1000 g ai/ha): 0
- Plant response rating, Corn ([16]; 1000 g ai/ha): 0

— patent publication US20100099561A1, “HETEROBICYCLIC ALKYLTHIO-BRIDGED ISOXAZOLINES” (E.I. DU PONT DE NEMOURS AND COMPANY, priority 2008, published 2010)
